Results on six molecules are retold here after patent US11691980B2, “Liphagal analog and multi-targeted kinase inhibitor containing liphagal or analog thereof” (TOHOKU UNIVERSITY, priority 2017, dated 2023).

Type in all cases: biochemical
In assay [1] the target is PIK3CA/PIK3R1 (Homo sapiens, UniProt P42336). Put plainly: ADP-Glo Kinase Assay. Conditions: FIG. 4. On the procedure:
CD-3 produced in the foregoing was used as a test substance, and was measured for its IC50 value for PIK3CA/PIK3R1 by ADP-Glo™ Kinase Assay. A specific procedure is as described below.
The test substance was dissolved in dimethyl sulfoxide (DMSO), and further diluted with DMSO to prepare a solution having a 100-fold concentration with respect to a Lest concentration. The solution was further diluted 25-fold with an assay buffer to prepare a test substance solution. A positive control substance was similarly treated to prepare a positive control substance solution.
1) 5 μL of a test substance solution having a 4-fold concentration, 5 μL of a substrate solution having a 4-fold concentration, 5 μL of an ATP solution having a 4-fold concentration, and 5 μL of a kinase/metal solution having a 4-fold concentration, which had been prepared with an assay buffer (50 mM MOPS, 1 mM DTT, pH 7.2), were mixed in wells of a 384 well black plate made of polystyrene, and the mixture was subjected to a reaction at room temperature for 1 hour. […]
4) The kinase reaction was assessed in terms of relative light unit (RLU). […]
An IC50 value was determined by approximating a plot of test substance concentration and inhibition rate to a 4-parameter logistic curve by a nonlinear least-squares method.

Assay [2] deals with CDK7/CycHMAT1 (Homo sapiens, UniProt P50613). Put plainly: IC50 by mobility shift assay. As to conditions: Table 2, mobility shift assay; read-out: IC50 (μM), Kinase CDK7/CycH/MAT1. An excerpt: (§1) The compounds produced in Production Examples described above were each assessed for its inhibitory activity against CDK7, PIM2, and PI3K by mobility shift assay. In addition, a combination showing the highest inhibitory activity against each kinase is indicated by italics.
Chain of CDK7/CycHMAT1 (P50613 whole entry): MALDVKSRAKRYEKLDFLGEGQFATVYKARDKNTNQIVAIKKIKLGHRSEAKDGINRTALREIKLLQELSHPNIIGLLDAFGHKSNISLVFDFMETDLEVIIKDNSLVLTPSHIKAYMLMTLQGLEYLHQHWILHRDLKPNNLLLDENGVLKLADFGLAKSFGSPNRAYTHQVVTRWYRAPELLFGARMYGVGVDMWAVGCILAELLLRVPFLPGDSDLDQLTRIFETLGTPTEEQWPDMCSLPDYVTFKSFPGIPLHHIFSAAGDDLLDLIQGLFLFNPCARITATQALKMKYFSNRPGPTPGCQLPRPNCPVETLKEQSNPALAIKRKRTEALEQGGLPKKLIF
Chain of CDK7/CycHMAT1 (P51946 whole entry partner): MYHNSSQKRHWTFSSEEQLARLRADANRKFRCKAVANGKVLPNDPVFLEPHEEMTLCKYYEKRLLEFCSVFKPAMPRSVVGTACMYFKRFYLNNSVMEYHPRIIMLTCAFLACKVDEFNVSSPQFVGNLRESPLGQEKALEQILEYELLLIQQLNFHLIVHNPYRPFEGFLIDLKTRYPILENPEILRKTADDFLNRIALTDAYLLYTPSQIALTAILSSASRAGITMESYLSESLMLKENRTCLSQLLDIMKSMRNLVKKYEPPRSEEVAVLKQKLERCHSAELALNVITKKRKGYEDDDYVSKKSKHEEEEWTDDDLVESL
Chain of CDK7/CycHMAT1 (P51948 whole entry partner): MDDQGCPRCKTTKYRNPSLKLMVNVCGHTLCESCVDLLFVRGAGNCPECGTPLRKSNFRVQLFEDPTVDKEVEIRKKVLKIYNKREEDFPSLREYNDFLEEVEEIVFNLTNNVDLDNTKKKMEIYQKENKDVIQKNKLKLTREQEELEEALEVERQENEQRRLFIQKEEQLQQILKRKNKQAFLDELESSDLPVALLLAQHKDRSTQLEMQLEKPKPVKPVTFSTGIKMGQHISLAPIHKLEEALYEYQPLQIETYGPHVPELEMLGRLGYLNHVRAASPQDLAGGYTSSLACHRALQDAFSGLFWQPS

In assay [3] the target is PIM2 (Homo sapiens, UniProt Q9P1W9). The assay is described as follows: IC50 by mobility shift assay. Conditions: for IC50: Table 2, mobility shift assay, read-out: IC50 (μM), Kinase PIM2; for inhibitory activity against PIM2: in words, Table 2.
Chain of PIM2 (Q9P1W9 whole entry): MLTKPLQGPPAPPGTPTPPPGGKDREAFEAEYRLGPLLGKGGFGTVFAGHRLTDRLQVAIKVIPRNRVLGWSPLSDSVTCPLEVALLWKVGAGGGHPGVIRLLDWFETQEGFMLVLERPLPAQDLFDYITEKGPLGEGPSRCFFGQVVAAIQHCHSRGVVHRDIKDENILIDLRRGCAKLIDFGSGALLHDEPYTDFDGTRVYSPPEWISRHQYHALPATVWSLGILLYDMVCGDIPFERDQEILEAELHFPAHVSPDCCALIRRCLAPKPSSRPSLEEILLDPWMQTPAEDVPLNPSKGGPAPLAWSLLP
Description: as §1

In assay [4] the target is PIK3α (PIK3CA/PIK3R1) (Homo sapiens, UniProt P42336). The assay is described as follows: IC50 by mobility shift assay. As to conditions: Table 2, mobility shift assay; read-out: IC50 (μM), Kinase PIK3CA/PIK3RI. On the procedure: The compounds obtained in Production Examples described above were each measured for its IC50 value for PIK3α (PIK3CA/PIK3R1) by mobility shift assay. The mobility shift assay is a method involving separating and quantifying a substrate and a phosphorylated substrate on the basis of mobility in a capillary. Each compound was mixed at various concentrations with an assay buffer (20 mM HEPES, 2 mM DTT, 25 μM sodium cholate, 75 mM NaCl, 20 μM cantharidine) together with 21 nM PI3K, 1,000 nM phosphatidyl inositol, 50 μM ATP, and 5 mM MgCl, and the mixture was subjected to a reaction at room temperature for 5 hours, followed by the mobility shift assay. The test was repeated twice. The enzymatic reaction was assessed on the basis of a product ratio (P/(P+S)) calculated from the height of a substrate peptide peak (S) and the height of a phosphorylated peptide peak (P). An inhibition rate was calculated from a signal obtained when each compound was added, with the average signal of a control containing all reaction components being defined as 0% inhibition and the average signal of a background (no enzyme added) being defined as 100% inhibition.
Chain of PIK3α (PIK3CA/PIK3R1) (P42336 whole entry): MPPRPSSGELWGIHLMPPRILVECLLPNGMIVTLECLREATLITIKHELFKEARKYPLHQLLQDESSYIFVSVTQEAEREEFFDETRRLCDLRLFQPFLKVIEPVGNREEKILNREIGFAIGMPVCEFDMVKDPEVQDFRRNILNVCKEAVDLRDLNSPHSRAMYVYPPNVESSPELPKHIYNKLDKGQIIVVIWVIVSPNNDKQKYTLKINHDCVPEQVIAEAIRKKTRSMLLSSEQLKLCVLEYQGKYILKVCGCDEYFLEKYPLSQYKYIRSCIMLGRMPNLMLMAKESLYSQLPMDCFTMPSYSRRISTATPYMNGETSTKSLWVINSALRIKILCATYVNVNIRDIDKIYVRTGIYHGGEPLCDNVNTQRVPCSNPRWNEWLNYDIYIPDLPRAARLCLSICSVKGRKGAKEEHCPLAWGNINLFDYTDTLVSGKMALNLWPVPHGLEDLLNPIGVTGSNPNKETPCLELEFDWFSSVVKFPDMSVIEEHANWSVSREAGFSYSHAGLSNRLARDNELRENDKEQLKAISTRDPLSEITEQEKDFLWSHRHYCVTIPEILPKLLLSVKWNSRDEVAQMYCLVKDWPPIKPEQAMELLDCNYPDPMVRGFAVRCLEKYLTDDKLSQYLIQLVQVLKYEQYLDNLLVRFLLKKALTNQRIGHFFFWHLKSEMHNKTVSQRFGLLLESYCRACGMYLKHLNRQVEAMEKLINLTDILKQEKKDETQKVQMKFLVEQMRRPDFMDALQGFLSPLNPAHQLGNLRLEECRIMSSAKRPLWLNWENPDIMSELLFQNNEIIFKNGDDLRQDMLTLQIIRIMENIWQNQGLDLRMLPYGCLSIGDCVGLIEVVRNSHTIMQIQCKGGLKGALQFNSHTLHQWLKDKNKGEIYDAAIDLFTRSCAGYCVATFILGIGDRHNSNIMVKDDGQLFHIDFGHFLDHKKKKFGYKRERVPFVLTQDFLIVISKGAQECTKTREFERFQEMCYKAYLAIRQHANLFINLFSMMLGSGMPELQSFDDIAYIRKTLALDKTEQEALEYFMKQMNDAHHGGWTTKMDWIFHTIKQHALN
Chain of PIK3α (PIK3CA/PIK3R1) (P27986 whole entry partner): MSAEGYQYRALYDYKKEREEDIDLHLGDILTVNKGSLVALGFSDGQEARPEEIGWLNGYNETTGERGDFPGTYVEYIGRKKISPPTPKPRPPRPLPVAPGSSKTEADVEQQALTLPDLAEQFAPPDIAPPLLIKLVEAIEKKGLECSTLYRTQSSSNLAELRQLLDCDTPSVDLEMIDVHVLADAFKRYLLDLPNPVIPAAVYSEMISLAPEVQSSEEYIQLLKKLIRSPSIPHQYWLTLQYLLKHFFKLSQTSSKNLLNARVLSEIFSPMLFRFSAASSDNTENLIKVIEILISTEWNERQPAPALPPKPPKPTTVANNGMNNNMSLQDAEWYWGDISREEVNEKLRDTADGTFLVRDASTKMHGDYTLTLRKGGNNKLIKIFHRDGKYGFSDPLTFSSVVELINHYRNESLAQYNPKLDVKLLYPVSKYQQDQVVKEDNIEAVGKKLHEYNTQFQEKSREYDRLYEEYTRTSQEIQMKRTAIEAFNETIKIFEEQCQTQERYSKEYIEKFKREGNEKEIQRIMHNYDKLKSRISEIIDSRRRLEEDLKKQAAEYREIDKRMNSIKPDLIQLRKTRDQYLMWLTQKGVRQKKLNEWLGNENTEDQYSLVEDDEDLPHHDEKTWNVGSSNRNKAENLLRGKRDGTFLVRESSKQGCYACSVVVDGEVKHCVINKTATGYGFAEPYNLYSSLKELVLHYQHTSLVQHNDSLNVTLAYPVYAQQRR
as §1

Assay [5] deals with CDK4/CycD3 (Homo sapiens, UniProt P11802). Put plainly: IC50 by mobility shift assay. Conditions: Table 3, CDK4, mobility shift assay; read-out: IC50 (μM), Kinase CDK4/CycD3. The source says:
Next, the compounds produced in Production Examples described above were each assessed for its inhibitory activity against CDK4 by mobility shift assay. In addition, a combination showing the highest inhibitory activity is indicated by italics.

Assay [6] deals with CDK6 (Homo sapiens, UniProt Q00534). Put plainly: IC50 by mobility shift assay. As to conditions: Table 4, inhibitory activity against CDK6, mobility shift assay; read-out: IC50 (μM), Kinase. The source says:
Next, the compounds produced in Production Examples described above were each assessed for its inhibitory activity against CDK6 by mobility shift assay. In addition, a combination showing the highest inhibitory activity is indicated by italics.

Chain of CDK4/CycD3 (P11802 whole entry): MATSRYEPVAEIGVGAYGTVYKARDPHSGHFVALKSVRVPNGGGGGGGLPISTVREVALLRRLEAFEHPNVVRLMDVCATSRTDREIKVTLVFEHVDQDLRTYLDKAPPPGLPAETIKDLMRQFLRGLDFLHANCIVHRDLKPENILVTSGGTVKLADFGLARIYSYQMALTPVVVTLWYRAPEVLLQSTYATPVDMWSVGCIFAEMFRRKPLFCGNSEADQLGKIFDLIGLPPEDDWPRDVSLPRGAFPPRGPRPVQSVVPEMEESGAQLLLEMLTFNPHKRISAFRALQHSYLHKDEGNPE
Chain of CDK4/CycD3 (P30281 whole entry partner): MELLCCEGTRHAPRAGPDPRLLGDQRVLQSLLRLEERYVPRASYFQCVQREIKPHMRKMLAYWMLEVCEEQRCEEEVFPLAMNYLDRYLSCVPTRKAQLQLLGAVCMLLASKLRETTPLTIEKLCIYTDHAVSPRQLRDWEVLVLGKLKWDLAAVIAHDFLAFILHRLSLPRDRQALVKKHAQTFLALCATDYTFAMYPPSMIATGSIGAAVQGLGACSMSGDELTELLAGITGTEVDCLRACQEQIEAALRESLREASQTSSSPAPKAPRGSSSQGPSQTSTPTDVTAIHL
Chain of CDK6 (Q00534 whole entry): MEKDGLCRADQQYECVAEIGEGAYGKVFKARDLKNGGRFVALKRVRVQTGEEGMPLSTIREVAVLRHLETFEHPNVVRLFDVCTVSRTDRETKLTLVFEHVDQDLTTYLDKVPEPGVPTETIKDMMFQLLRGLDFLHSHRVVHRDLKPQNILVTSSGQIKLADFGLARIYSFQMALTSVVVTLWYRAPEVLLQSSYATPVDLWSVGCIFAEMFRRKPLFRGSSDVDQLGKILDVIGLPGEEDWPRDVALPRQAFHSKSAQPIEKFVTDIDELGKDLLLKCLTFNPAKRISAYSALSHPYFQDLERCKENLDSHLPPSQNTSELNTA
Chain of PIK3CA/PIK3R1 (P42336 whole entry): as the sequence (P42336 whole entry) above
Chain of PIK3CA/PIK3R1 (P27986 whole entry partner): as the sequence (P27986 whole entry partner) above

In assay [1], `C[C@H]1CC[C@H]2C(C)(C)CCCC2(C)[C@]12C=C1C=C(O)C(=O)C(C=O)=C1O2` (stereo partly drawn) [CD-3, 8-epi-corallidictyal B] showed an IC50 of 8.2 µM.

As to `C[C@H]1CC[C@H]2C(C)(C)CCC[C@]2(C)c2c1oc1c(C=O)c(O)c(O)cc21` [LG-2], the IC50 in assay [2] was 9.08 µM; in assay [3] it was 2.81 µM; in assay [4], 1.72 µM; in assay [5] it was 125 µM. Further, the “inhibitory activity against PIM2” value in assay [3] is listed as “potent inhibitory actions”.

`C[C@@H]1CC[C@H]2C(C)(C)CCC[C@]2(C)c2c1oc1c(C=O)c3c(cc21)OCO3` [LG-3]: the IC50 in assay [2] was determined as 16.3 µM; in assay [3] it was 18 µM; in assay [4], 4.26 µM; in assay [5], 47.8 µM; in assay [6] it was 64.1 µM.

On to `C[C@H]1CC[C@H]2C(C)(C)CCC[C@]2(C)c2c1oc1c(C=O)c3c(cc21)OCO3` [LG-4], for which the values for the IC50 in assay [2], in assay [3] and in assay [4] were 191 µM, 13.8 µM and 4.43 µM, respectively.

As to `C[C@@H]1CC[C@H]2C(C)(C)CCC[C@]2(C)/C1=C/c1cc(O)c(O)c(C=O)c1O` [SD-1, siphonodictyal B], the IC50 in assay [2] stood at 13.7 µM; in assay [3], 6.99 µM; in assay [4] it was 2.62 µM; in assay [5] it was 32.9 µM; in assay [6], 69.1 µM.

On to `C[C@H]1CC[C@H]2C(C)(C)CCC[C@]2(C)/C1=C/c1cc(O)c(O)c(C=O)c1O` [SD-2, 8-epi-siphonodictyal B], for which the IC50 was 4.24 µM in assay [2]; 2.79 µM in assay [3]; 3.26 µM in assay [4]; 22.4 µM in assay [5]; 25.6 µM in assay [6]. The “inhibitory activity against PIM2” value in assay [3] was “potent inhibitory actions”.
